PMC3070735, “Uremic Toxins Inhibit Transport by Breast Cancer Resistance Protein and Multidrug Resistance Protein 4 at Clinically Relevant Concentrations” (PLoS ONE, 2011)
Structures can show the parent of a compound that is named as a salt. Where two headings read alike, the source gives them in different places.

Target: T1, BCRP (Homo sapiens, UniProt Q9UNQ0)
T1 sequence (Q9UNQ0 1-655): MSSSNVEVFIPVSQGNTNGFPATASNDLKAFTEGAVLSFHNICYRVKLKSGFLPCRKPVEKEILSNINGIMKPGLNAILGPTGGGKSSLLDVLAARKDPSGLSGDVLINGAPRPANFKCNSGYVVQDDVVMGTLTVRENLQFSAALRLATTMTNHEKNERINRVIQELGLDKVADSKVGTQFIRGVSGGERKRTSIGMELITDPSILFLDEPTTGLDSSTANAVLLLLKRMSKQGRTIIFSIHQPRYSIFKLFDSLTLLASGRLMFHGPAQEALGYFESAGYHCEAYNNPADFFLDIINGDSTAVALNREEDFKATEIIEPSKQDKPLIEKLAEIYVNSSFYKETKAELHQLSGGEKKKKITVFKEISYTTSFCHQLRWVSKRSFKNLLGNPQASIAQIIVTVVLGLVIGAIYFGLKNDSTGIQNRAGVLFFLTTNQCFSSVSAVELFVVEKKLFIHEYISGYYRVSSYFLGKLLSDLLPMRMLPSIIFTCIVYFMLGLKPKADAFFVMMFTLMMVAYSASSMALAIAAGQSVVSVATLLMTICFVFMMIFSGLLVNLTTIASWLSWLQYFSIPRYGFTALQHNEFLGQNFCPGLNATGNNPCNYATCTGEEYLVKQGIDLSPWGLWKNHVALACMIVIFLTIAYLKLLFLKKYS
Test: Membrane vesicle transport inhibition assay: BCRP-mediated [3H]-E1S uptake
Details: for Mode of inhibition of BCRP-mediated transport: Dixon plot, three [3H]-E1S concentrations; for IC50: IC50, [3H]-E1S uptake into BCRP membrane vesicles, 1 min, 37°C, mean ± SEM of three experiments; for IC20 at 1 min: human, membrane vesicles from HEK293 cells overexpressing BCRP, pH 7, probe [3H]-estrone sulfate ([3H]-E1S); for Decrease of BCRP-mediated transport compared to control: toxin 1 mM
Method: Human embryonic kidney (HEK293; purchased at American Type Culture Collection, Manassas, VA) cells were cultured in Dulbecco's modified Eagle's medium (Invitrogen life sciences, Breda, the Netherlands) containing 10% (v/v) fetal calf serum (MP Biomedicals, Uden, the Netherlands) at 37°C in a 5% (v/v) CO2 atmosphere. To functionally overexpress MRP4 and BCRP, HEK293 cells were transduced with baculoviruses of human MRP4, BCRP or enhanced yellow fluorescent protein (EYFP), generated via the Bac-to-Bac system (Invitrogen) as previously described. To transduce HEK293 cells, they were cultured in 500 cm^2 flasks until 70% confluence. Subsequently, medium was removed and 10 ml of virus and 25 ml of medium were added and incubated for 30 min at 37°C. Next, 50 ml of medium was added and after 2 h of transduction 5 mM sodium butyrate was added.
Three days after transduction, cells were harvested and pelleted by centrifugation (30 min at 4,000 x g). Afterwards, the cells were resuspended in ice-cold hypotonic TS buffer (0.5 mM sodium phosphate, 0.1 mM EDTA, pH 7.0) containing protease inhibitors (100 µM phenylmethylsulfonyl fluoride, 5 µg/ml aprotinin, 5 µg/ml leupeptin, 1 µg/ml pepstatin and 1 µg/ml E-64) and shaken for 30 min at 4°C. Cells were then centrifuged at 100,000 x g for 30 min at 4°C. Subsequently, pellet was resuspended in ice-cold isotonic buffer (10 mM Tris-HEPES and 250 mM sucrose, pH 7.4, adjusted with HEPES) supplemented with protease inhibitors and homogenized using a tight fitting Dounce homogenizer followed by centrifugation (1,000 x g, 20 min, 4°C). Afterwards, supernatant was centrifuged at 100,000 x g for 1 h at 4°C. The resulting pellet was resuspended in isotonic buffer and passed through a 27-gauge needle 25 times to obtain crude membrane vesicles. The protein content of samples was determined using the Bio-Rad protein assay (Veenendaal, the Netherlands), according to manufacturers recommendations. Vesicles were frozen in liquid nitrogen and stored at −80°C until use. The orientation of the membrane vesicles was not determined, since ATP-dependent uptake occurs only in inside-out vesicles.
A rapid filtration technique was used to study the uptake of [^3H]-MTX and [^3H]-E1S into MRP4 or BCRP membrane vesicles, as previously described. In short, 25 µl of TS buffer containing 4 mM ATP, 10 mM MgCl2 and radiolabeled substrate was added to 5 µl of the membrane vesicles (1.5 mg/ml). The transport assay was performed in the absence or presence of various concentrations of uremic toxins to evaluate the inhibitory effects of these compounds on MRP4-mediated [^3H]-MTX uptake and BCRP-mediated [^3H]-E1S uptake. […] Uptake was stopped by placing the samples on ice and the addition of 150 µl ice cold TS buffer. Subsequently, the samples were transferred to a 96 well filter plate (Millipore, Etten-leur, the Netherlands) pre-incubated with TS buffer and filtered using a Multiscreen HTS-Vacuum Manifold filtration device (Millipore). Afterwards, 2 ml of scintillation liquid was added to each filter and radioactivity was determined using liquid scintillation counting. As negative controls ATP was substituted for AMP and EYFP-membrane vesicles were used. Each experiment was performed in triplicates.
Statistics were performed using GraphPad Prism 5.02 via an unpaired t test or a Kruskal-Wallis test followed by a Dunn's Multiple Comparison test. Differences between groups were considered to be statistically significant when p<0.05. The mean IC50 and IC20 values were calculated from the inhibition curves used for the Dixon analysis and to determine the inhibition constant (Ki) from the Dixon plots. Transport inhibition studies were performed in triplicate and repeated at least three times.

[1] = [3H]-E1S uptake, result in words

Compound	Ki	IC50	IC20 at 1 min	Effect on transport mediated by BCRP [1]	Decrease of BCRP-mediated transport compared to control ([3H]-E1S uptake)	further results
O=S(=O)(O)Oc1c[nH]c2ccccc12 [indoxyl sulfate]	500 µM	770 ± 120 µM	390 ± 30 µM	–	–	Mode of inhibition of BCRP-mediated transport: non-competitive
NCCCCN [putrescine]	–	–	–	did not alter transport	≤ 10%	–
O=C(O)CNC(=O)c1ccccc1 [hippuric acid]	4000 ± 100 µM	3670 ± 170 µM	690 ± 70 µM	–	–	Extent of inhibition of [3H]-E1S uptake by BCRP (0.1 mM to 3.5 mM, result in words): completely blocked; Mode of inhibition of BCRP-mediated transport: non-competitive
O=C(O)c1cc(=O)c2ccccc2[nH]1 [kynurenic acid]	50 µM	40 ± 1 µM	10 ± 1 µM	–	–	–
O=C(O)C(=O)O [oxalate]	–	–	–	did not alter transport	≤ 10%	–
Cc1ccc(O)cc1 [p-cresol]	–	–	–	–	≤ 10%	Effect on transport mediated by BCRP: did not alter transport
Cc1ccc(S(=O)(=O)O)cc1 [p-toluenesulfonic acid, reference compound]	–	–	–	did not alter transport	≤ 10%	–
O=C(O)Cc1ccccc1 [phenylacetic acid]	–	–	–	only reduced [^3H]-MTX uptake by MRP4	–	–
O=C(O)Cc1c[nH]c2ccccc12 [indole-3-acetic acid]	–	–	–	only reduced [^3H]-MTX uptake by MRP4	–	–
O=C(O)c1cccnc1C(=O)O [quinolinic acid]	–	–	–	did not alter transport	≤ 10%	–
